Measured values as given in patent publication US6638957B1, “Use of compounds with a nitrogen-oxygen heterocycle” (Jomaa Pharmaka GmbH, priority 1999, dated 2003).
Converted amounts (≈) assume the structure as drawn. Read-outs that look alike come from different tables or passages of the source.

Tests used:
[1] = tested on: Plasmodium falciparum; assay: antimalaria activity on in vitro cultures, [3H]-hypoxanthine incorporation; type: cell-based; settings: 72 h, inhibition of [3H]-hypoxanthine incorporation, 48 + 24 hours, read-out: IC50(nM) of malaria culture (Plasmodium falciparum)
Protocol: The antimalaria activity of the compounds listed on page 9 was determined on in vitro cultures of the malaria pathogen Plasmodium falciparum. The depressions of a 96-well microtitre plate were charged with in each case 200 μl of an asynchroneous Plasmodium falciparum culture at a parasitaemia of 0,4% and haematokrit of 2%. A serial dilution series of the compounds in triple steps between concentrations of 100 to 0,14 μmol 1^−1 was then prepared. The plates were incubated at 37° C., 3% CO2 and 5% O2 over a period of 48 hours. 30 μl medium supplemented with 27 μCi ml^−1 [^3H]-hypoxanthine were then added to each well. After incubation for 24 hours the parasites were harvested by filtration on a glass fibre filter and the radioactivity which had been incorporated was measured. The inhibition of the growth of parasites was measured as the percentage inhibition of the incorporation of tritium. Inhibition of the growth of the parasites has been determined as percentage inhibition of incorporation of tritium based on a comparison without the substance. The half-maximum inhibitory concentration (IC50) of the substance was determined by extrapolation of the values.

[2] = tested on: Reis; assay: herbicidal activity, Hydro Vorauflauf; type: in vivo
Protocol: (§1) The determination of herbicidal activity is performed according to standard procedure. Again the compounds listed on page 9 are tested.

[3] = tested on: Lepidium; assay: herbicidal activity, Hydro Vorauflauf; type: in vivo
Protocol: as §1

[4] = tested on: Echinochloa; assay: herbicidal activity, Hydro Vorauflauf; type: in vivo
Protocol: as §1

[5] = tested on: Solanum; assay: herbicidal activity, Hydro Vorauflauf; type: in vivo
Protocol: as §1

[6] = target: T1, DOXP reductoisomerase of Escherichia coli (UniProt P56139); assay: inhibition of recombinant DOXP reductoisomerase (NADPH oxidation); type: biochemical; settings: 1 mM DOXP, 0,3 mM NADPH, pH 7,5; read-out: IC50(nM) of DOXP reductoisomerase from Helicobacter pilori
T1 sequence (P56139 1-368): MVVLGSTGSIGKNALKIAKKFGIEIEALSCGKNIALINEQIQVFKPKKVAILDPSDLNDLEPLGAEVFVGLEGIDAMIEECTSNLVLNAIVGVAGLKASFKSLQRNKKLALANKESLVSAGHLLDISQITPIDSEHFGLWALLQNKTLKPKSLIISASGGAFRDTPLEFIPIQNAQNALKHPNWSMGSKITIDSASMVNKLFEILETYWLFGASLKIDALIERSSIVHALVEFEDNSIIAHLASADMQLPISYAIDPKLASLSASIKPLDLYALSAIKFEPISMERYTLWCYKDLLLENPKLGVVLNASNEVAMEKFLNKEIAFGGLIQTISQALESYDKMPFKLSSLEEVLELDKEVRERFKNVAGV

[7] = tested on: Cyperus esculentus; assay: herbicidal activity, Erde Nachauflauf; type: in vivo
Protocol: as §1

[8] = tested on: Sinapis arvensis; assay: herbicidal activity, Erde Nachauflauf; type: in vivo; settings: Mutarda arvensis
Protocol: as §1

[9] = tested on: Zea mays; assay: herbicidal activity, Erde Nachauflauf; type: in vivo
Protocol: as §1

[10] = tested on: Alopecurus myosuroides; assay: herbicidal activity, Erde Nachauflauf; type: in vivo
Protocol: as §1

[11] = tested on: Xanthium strumarium; assay: herbicidal activity, Erde Nachauflauf; type: in vivo
Protocol: as §1

[12] = tested on: Amaranthus retroflexus; assay: herbicidal activity, Erde Nachauflauf; type: in vivo
Protocol: as §1

[13] = tested on: Galium aperine; assay: herbicidal activity, Erde Nachauflauf; type: in vivo
Protocol: as §1

[14] = tested on: Setaria viridis; assay: herbicidal activity, Erde Nachauflauf; type: in vivo
Protocol: as §1

[15] = tested on: Beta vulgaris; assay: herbicidal activity, Erde Nachauflauf; type: in vivo
Protocol: as §1

[16] = tested on: Abutilon theophrasti; assay: herbicidal activity, Erde Nachauflauf; type: in vivo
Protocol: as §1

[17] = tested on: Avena fatua; assay: herbicidal activity, Erde Nachauflauf; type: in vivo
Protocol: as §1

[18] = tested on: Cyperus esculentus; assay: herbicidal activity, Erde Vorauflauf; type: in vivo
Protocol: as §1

[19] = tested on: Sinapis arvensis; assay: herbicidal activity, Erde Vorauflauf; type: in vivo; settings: Mutarda arvensis
Protocol: as §1

[20] = tested on: Zea mays; assay: herbicidal activity, Erde Vorauflauf; type: in vivo
Protocol: as §1

[21] = tested on: Alopecurus myosuroides; assay: herbicidal activity, Erde Vorauflauf; type: in vivo
Protocol: as §1

[22] = tested on: Xanthium strumarium; assay: herbicidal activity, Erde Vorauflauf; type: in vivo
Protocol: as §1

[23] = tested on: Amaranthus retroflexus; assay: herbicidal activity, Erde Vorauflauf; type: in vivo
Protocol: as §1

[24] = tested on: Galium aperine; assay: herbicidal activity, Erde Vorauflauf; type: in vivo
Protocol: as §1

[25] = tested on: Setaria viridis; assay: herbicidal activity, Erde Vorauflauf; type: in vivo
Protocol: as §1

[26] = tested on: Beta vulgaris; assay: herbicidal activity, Erde Vorauflauf; type: in vivo
Protocol: as §1

[27] = tested on: Abutilon theophrasti; assay: herbicidal activity, Erde Vorauflauf; type: in vivo
Protocol: as §1

[28] = tested on: Avena fatua; assay: herbicidal activity, Erde Vorauflauf; type: in vivo
Protocol: as §1

[29] = tested on: Pseudomonas aeruginosa; assay: antibacterial activity, minimum inhibition concentration in liquid culture; type: cell-based; settings: read-out: MIC(nM) of bacteria culture (Pseudomonas aeruginosa)
Protocol: A dilution series comprising the concentrations 500, 100, 50, 10 and 0 μmol 1^−1 of the individual compounds in LB medium is introduced into 5 culture microtubes in a volume of 0,5 ml. The tubes were inoculated with 10 μl of an overnight culture of E. coli K12 and shaken overnight at 37° C. The growth of the bacteria was assessed on the basis of the turbidity of the medium. The minimum concentration causing inhibition of bacterial growth was determined (minimum inhibition concentration MIC)
The antibacterial activity of P. aeruginosa was determined in the same manner.

Compound: CN(C)CC(=O)CN1OCCC(C)(C)C1=O [Compound 8]
- IC50 [1]: 700 nM
- pest or weed control at 2000 g/ha ([2]; 2000 Gramm/Hektar): 0%
- pest or weed control at 2000 g/ha ([3]; 2000 Gramm/Hektar): 30%
- pest or weed control at 2000 g/ha ([4]; 2000 Gramm/Hektar): 40%
- pest or weed control at 2000 g/ha ([5]; 2000 Gramm/Hektar): 30%
- IC50 [6]: 24 nM
- pest or weed control at 1000 g/ha ([7]; 1000 Gramm/Hektar): 0%
- pest or weed control at 1000 g/ha ([8]; 1000 Gramm/Hektar): 90%
- plant injury at 1000 g/ha ([9]; 1000 Gramm/Hektar): 70%
- pest or weed control at 1000 g/ha ([10]; 1000 Gramm/Hektar): 70%
- pest or weed control at 1000 g/ha ([11]; 1000 Gramm/Hektar): 90%
- pest or weed control at 1000 g/ha ([12]; 1000 Gramm/Hektar): 50%
- pest or weed control at 1000 g/ha ([13]; 1000 Gramm/Hektar): 70%
- pest or weed control at 1000 g/ha ([14]; 1000 Gramm/Hektar): 90%
- plant injury at 1000 g/ha ([15]; 1000 Gramm/Hektar): 40%
- pest or weed control at 1000 g/ha ([16]; 1000 Gramm/Hektar): 50%
- pest or weed control at 1000 g/ha ([17]; 1000 Gramm/Hektar): 80%
- pest or weed control at 1000 g/ha ([18]; 1000 Gramm/Hektar): 0%
- pest or weed control at 1000 g/ha ([19]; 1000 Gramm/Hektar): 30%
- plant injury at 1000 g/ha ([20]; 1000 Gramm/Hektar): 30%
- pest or weed control at 1000 g/ha ([21]; 1000 Gramm/Hektar): 30%
- pest or weed control at 1000 g/ha ([22]; 1000 Gramm/Hektar): 0%
- pest or weed control at 1000 g/ha ([23]; 1000 Gramm/Hektar): 20%
- pest or weed control at 1000 g/ha ([24]; 1000 Gramm/Hektar): 0%
- pest or weed control at 1000 g/ha ([25]; 1000 Gramm/Hektar): 0%
- plant injury at 1000 g/ha ([26]; 1000 Gramm/Hektar): 30%
- pest or weed control at 1000 g/ha ([27]; 1000 Gramm/Hektar): 0%
- pest or weed control at 1000 g/ha ([28]; 1000 Gramm/Hektar): 30%
- MIC ([29]; LB medium, overnight at 37° C., turbidity): 7300 nM (≈ 1.67 µg/mL)

Compound: CP(=O)(O)CCCN1OCCCC1=O [Compound 4]
- IC50 [1]: 9200 nM
- pest or weed control at 4000 g/ha ([2]; 4000 Gramm/Hektar): 30%
- pest or weed control at 4000 g/ha ([3]; 4000 Gramm/Hektar): 30%
- pest or weed control at 4000 g/ha ([4]; 4000 Gramm/Hektar): 70%
- pest or weed control at 4000 g/ha ([5]; 4000 Gramm/Hektar): 30%
- IC50 [6]: 78 nM
- pest or weed control at 2000 g/ha ([7]; 2000 Gramm/Hektar): 0%
- pest or weed control at 2000 g/ha ([8]; 2000 Gramm/Hektar): 60%
- plant injury at 2000 g/ha ([9]; 2000 Gramm/Hektar): 70%
- pest or weed control at 2000 g/ha ([10]; 2000 Gramm/Hektar): 70%
- pest or weed control at 2000 g/ha ([11]; 2000 Gramm/Hektar): 90%
- pest or weed control at 2000 g/ha ([12]; 2000 Gramm/Hektar): 40%
- pest or weed control at 2000 g/ha ([13]; 2000 Gramm/Hektar): 70%
- pest or weed control at 2000 g/ha ([14]; 2000 Gramm/Hektar): 90%
- plant injury at 2000 g/ha ([15]; 2000 Gramm/Hektar): 50%
- pest or weed control at 2000 g/ha ([16]; 2000 Gramm/Hektar): 50%
- pest or weed control at 2000 g/ha ([17]; 2000 Gramm/Hektar): 40%
- pest or weed control at 2000 g/ha ([18]; 2000 Gramm/Hektar): 0%
- pest or weed control at 2000 g/ha ([19]; 2000 Gramm/Hektar): 70%
- plant injury at 2000 g/ha ([20]; 2000 Gramm/Hektar): 30%
- pest or weed control at 2000 g/ha ([21]; 2000 Gramm/Hektar): 0%
- pest or weed control at 2000 g/ha ([22]; 2000 Gramm/Hektar): 0%
- pest or weed control at 2000 g/ha ([23]; 2000 Gramm/Hektar): 0%
- pest or weed control at 2000 g/ha ([24]; 2000 Gramm/Hektar): 0%
- pest or weed control at 2000 g/ha ([25]; 2000 Gramm/Hektar): 0%
- plant injury at 2000 g/ha ([26]; 2000 Gramm/Hektar): 60%
- pest or weed control at 2000 g/ha ([27]; 2000 Gramm/Hektar): 0%
- pest or weed control at 2000 g/ha ([28]; 2000 Gramm/Hektar): 60%
- MIC [29]: 7000 nM (≈ 1.55 µg/mL)
